According to US20250122183A1 (Pfizer Inc., priority 2023, published 2025):

Columns and labels:
Assay type in all cases: biochemical
KAT8 Full length enzyme = KAT8 Full length enzyme (Homo sapiens (Human), UniProt Q9H7Z6); experiment: KAT8 assay (SAMDI-MS acetylation of H3 1-21 peptide); conditions: Morrison equation fit; replicate number in parentheses; read-out: KAT8 Ki (nM) (replicate number)
[1] = biological target: KAT7+BRPF1+EAF6+ING5 4 protein complex (Homo sapiens (Human), UniProt O95251); experiment: KAT7 BRPF1 assay (SAMDI-MS acetylation of H3 1-21 peptide); conditions: Morrison equation fit; replicate number in parentheses
KAT6A Full length enzyme = KAT6A Full length enzyme (Homo sapiens (Human), UniProt Q92794); experiment: KAT6A assay (SAMDI-MS acetylation of H3 1-21 peptide); conditions: Morrison equation fit; replicate number in parentheses; read-out: KAT6A Ki (nM) (replicate number)
[2] = biological target: KAT7+JADE1+EAF6+ING5 4 protein complex (Homo sapiens (Human), UniProt O95251); experiment: KAT7 JADE1 assay (SAMDI-MS acetylation of H3 1-21 peptide); conditions: Morrison equation fit; replicate number in parentheses; read-out: KAT7 JADE1 Ki (nM) (replicate number)
[3] = biological target: KAT7+BRPF2+EAF6+ING5 4 protein complex (Homo sapiens (Human), UniProt O95251); experiment: KAT7 BRPF2 assay (SAMDI-MS acetylation of H3 1-21 peptide); conditions: Morrison equation fit; replicate number in parentheses; read-out: KAT7 BRPF2 Ki (nM) (replicate number)
KAT5 Full length enzyme = KAT5 Full length enzyme (Homo sapiens (Human), UniProt Q92993); experiment: KAT5 assay (SAMDI-MS acetylation of H4 1-21 peptide); conditions: Morrison equation fit; replicate number in parentheses; read-out: KAT5 Ki (nM) (replicate number)
KAT5 Full length enzyme, sequence (Q92993 whole entry): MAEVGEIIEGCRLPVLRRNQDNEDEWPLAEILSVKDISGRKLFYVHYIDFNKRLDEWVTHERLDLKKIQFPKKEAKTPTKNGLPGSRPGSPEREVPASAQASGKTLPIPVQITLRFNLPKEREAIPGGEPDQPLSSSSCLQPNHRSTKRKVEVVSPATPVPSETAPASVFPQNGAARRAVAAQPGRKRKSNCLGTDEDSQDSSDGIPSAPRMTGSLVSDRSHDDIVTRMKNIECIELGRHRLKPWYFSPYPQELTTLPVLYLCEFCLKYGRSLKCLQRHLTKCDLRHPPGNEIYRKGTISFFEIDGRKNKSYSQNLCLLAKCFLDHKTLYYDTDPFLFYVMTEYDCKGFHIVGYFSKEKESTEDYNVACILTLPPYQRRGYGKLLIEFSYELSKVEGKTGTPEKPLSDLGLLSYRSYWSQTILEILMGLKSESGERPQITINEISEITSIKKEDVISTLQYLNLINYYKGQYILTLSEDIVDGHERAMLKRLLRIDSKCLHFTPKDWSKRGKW

KAT6A Full length enzyme, sequence (Q92794 other isoform, or with tags, fused parts or gaps): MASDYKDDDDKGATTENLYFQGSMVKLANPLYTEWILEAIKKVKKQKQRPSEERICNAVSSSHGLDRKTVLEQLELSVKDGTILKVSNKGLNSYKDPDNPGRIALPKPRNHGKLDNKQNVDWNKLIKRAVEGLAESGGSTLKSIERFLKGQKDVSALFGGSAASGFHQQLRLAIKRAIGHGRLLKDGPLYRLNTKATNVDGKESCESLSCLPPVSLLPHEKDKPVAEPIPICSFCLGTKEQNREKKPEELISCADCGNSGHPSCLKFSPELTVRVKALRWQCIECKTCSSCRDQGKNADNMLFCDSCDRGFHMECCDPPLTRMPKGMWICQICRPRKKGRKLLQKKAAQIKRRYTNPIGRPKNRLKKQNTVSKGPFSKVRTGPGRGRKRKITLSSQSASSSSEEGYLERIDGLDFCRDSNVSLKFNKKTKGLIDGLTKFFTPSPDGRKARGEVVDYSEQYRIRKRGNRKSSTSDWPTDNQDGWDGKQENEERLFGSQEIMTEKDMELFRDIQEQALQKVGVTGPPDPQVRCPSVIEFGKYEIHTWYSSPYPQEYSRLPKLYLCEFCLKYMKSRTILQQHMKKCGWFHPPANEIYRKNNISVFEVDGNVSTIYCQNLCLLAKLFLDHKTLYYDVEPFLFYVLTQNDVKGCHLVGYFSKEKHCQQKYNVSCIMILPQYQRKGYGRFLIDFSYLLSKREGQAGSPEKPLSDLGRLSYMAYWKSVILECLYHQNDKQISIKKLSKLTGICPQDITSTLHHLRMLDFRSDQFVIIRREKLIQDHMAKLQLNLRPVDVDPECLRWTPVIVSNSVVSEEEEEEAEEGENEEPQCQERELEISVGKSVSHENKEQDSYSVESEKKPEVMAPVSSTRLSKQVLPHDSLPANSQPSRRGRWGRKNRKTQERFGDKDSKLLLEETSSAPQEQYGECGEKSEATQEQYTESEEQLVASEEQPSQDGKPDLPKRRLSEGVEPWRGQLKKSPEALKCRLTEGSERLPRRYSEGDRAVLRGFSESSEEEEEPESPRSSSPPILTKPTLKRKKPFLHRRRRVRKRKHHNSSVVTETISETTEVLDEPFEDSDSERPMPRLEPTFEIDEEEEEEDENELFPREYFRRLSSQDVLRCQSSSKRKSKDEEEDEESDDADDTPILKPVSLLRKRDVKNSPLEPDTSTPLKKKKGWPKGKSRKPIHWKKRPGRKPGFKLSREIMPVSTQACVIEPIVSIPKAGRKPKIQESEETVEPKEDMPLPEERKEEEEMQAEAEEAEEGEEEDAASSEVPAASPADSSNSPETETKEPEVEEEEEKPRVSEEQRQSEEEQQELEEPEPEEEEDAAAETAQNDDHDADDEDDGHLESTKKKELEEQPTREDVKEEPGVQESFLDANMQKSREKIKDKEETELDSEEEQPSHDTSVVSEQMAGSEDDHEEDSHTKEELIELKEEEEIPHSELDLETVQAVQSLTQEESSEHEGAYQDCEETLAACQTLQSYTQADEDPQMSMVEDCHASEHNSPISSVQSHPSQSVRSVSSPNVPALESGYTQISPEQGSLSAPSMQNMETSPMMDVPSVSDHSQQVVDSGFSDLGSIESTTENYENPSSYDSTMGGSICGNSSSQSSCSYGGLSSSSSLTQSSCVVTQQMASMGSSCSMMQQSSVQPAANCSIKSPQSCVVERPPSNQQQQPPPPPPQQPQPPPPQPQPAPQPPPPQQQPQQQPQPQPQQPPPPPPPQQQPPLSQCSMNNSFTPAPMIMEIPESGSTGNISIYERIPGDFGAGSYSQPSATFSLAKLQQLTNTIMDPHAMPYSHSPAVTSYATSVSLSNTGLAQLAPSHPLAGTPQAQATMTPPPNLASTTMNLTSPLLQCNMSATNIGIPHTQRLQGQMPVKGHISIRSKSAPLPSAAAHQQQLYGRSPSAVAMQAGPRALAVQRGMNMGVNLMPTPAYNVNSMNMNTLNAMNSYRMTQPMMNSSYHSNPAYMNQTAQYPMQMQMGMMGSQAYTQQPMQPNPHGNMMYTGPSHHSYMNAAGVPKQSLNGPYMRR
KAT8 Full length enzyme, sequence (Q9H7Z6 whole entry): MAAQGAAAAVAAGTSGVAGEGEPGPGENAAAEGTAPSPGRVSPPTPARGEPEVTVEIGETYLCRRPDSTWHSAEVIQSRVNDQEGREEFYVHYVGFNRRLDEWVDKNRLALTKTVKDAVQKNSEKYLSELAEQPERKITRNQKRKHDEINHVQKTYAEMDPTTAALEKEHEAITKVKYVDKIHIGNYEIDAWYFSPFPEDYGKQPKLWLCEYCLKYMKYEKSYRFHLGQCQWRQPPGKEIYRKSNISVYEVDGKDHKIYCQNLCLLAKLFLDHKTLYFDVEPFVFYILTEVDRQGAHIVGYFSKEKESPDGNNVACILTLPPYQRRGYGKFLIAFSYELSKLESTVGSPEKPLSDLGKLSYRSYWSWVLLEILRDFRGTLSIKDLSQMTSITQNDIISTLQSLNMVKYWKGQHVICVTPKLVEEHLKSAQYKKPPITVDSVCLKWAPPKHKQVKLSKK

With `CCOc1ccccc1S(=O)(=O)Nc1noc2cc(Nc3cc(C(C)C)[nH]n3)c(OC)cc12` [Example 63, 2-ethoxy-N-(5-methoxy-6-{[5-(propan-2-yl)-1H-pyrazol-3-yl]amino}-1,2-benzoxazol-3-yl)benzene-1-sulfonamide] as the compound, how does the Ki (KAT8 Full length enzyme) read?
Its Ki is 13000 nM.

What about the Ki [1] of the same compound?
The Ki was 54.8 nM.

And the Ki (KAT6A Full length enzyme)?
The Ki was 10.2 nM.

What about the Ki [2] of the same compound?
Its Ki is 203 nM.

What about the Ki [3] of the same compound?
The Ki was 76.2 nM.

What about the Ki (KAT5 Full length enzyme) of the same compound?
The Ki was 436 nM.

What does the source list for `COc1cc2c(NS(=O)(=O)c3c(OC)cccc3OCC(F)F)noc2cc1Nc1cc[nH]n1` [Example 31, 2-(2,2-difluoroethoxy)-6-methoxy-N-{5-methoxy-6-[(1H-pyrazol-3-yl)amino]-1,2-benzoxazol-3-yl}benzene-1-sulfonamide]?
Ki (KAT8 Full length enzyme): 781 nM; Ki [1]: 79.9 nM; Ki (KAT6A Full length enzyme): 0.8 nM; Ki [2]: 325 nM; Ki [3]: 104 nM; Ki (KAT5 Full length enzyme): 977 nM

`COc1cc2c(NS(=O)(=O)c3ccccc3OC)noc2cc1Nc1cc(C(C)C)[nH]n1` [Example 65, 2-methoxy-N-(5-methoxy-6-{[5-(propan-2-yl)-1H-pyrazol-3-yl]amino}-1,2-benzoxazol-3-yl)benzene-1-sulfonamide] was tested. Which Ki (KAT8 Full length enzyme) did it give?
Its Ki is greater than 13000 nM.

And the Ki [1]?
The Ki was 57.4 nM.

And the Ki (KAT6A Full length enzyme)?
Its Ki is 8.6 nM.

What about the Ki [2] of the same compound?
Its Ki is 206 nM.

And the Ki [3]?
Its Ki is 85.4 nM.

What about the Ki (KAT5 Full length enzyme) of the same compound?
The Ki was 1280 nM.

`CCOc1cc(C)ccc1S(=O)(=O)Nc1noc2cc(Nc3cc(C(C)C)[nH]n3)c(OC)cc12` [Example 78, 2-ethoxy-N-(5-methoxy-6-{[5-(propan-2-yl)-1H-pyrazol-3-yl]amino}-1,2-benzoxazol-3-yl)-4-methylbenzene-1-sulfonamide] was tested. Which Ki (KAT8 Full length enzyme) did it give?
Its Ki is 8730 nM.

What about the Ki [1] of the same compound?
Its Ki is 40.2 nM.

What about the Ki (KAT6A Full length enzyme) of the same compound?
Its Ki is 2.5 nM.

What about the Ki [2] of the same compound?
Its Ki is 109 nM.

And the Ki [3]?
Its Ki is 54.4 nM.

What about the Ki (KAT5 Full length enzyme) of the same compound?
The Ki was 354 nM.

Which Ki (KAT8 Full length enzyme) does the source give for `COc1cc2c(NS(=O)(=O)c3cc(C(C)C)c(C)cc3OC)noc2cc1Nc1cc[nH]n1` [Example 26, 2-methoxy-N-{5-methoxy-6-[(1H-pyrazol-3-yl)amino]-1,2-benzoxazol-3-yl}-4-methyl-5-(propan-2-yl)benzene-1-sulfonamide] here?
Its Ki is 154 nM.

And the Ki [1]?
Its Ki is 14.7 nM.

And the Ki (KAT6A Full length enzyme)?
The Ki was 0.6 nM.

What about the Ki [2] of the same compound?
Its Ki is 206 nM.

What about the Ki [3] of the same compound?
Its Ki is 71.5 nM.

And the Ki (KAT5 Full length enzyme)?
The Ki was 189 nM.

`COC(=O)c1cc(Nc2cc3onc(NS(=O)(=O)c4c(OC)cccc4OC)c3cc2OC)[nH]n1` [Example 55, methyl 5-({3-[(2,6-dimethoxybenzene-1-sulfonyl)amino]-5-methoxy-1,2-benzoxazol-6-yl}amino)-1H-pyrazole-3-carboxylate] was tested. Which Ki [1] did it give?
The Ki was 199 nM.

What about the Ki (KAT6A Full length enzyme) of the same compound?
The Ki was 2.4 nM.

What about the Ki [2] of the same compound?
The Ki was 663 nM.

And the Ki [3]?
The Ki was 147 nM.

For `COc1cc2c(NS(=O)(=O)c3c(OC)cccc3OC)noc2cc1Nc1cc(Cc2ccccc2)n[nH]1` [Example 109, N-{6-[(3-benzyl-1H-pyrazol-5-yl)amino]-5-methoxy-1,2-benzoxazol-3-yl}-2,6-dimethoxybenzene-1-sulfonamide], which Ki (KAT8 Full length enzyme) is on record?
The Ki was 2930 nM.

What about the Ki [1] of the same compound?
Its Ki is 5 nM.

And the Ki (KAT6A Full length enzyme)?
The Ki was 0.8 nM.

What about the Ki [2] of the same compound?
The Ki was 18.5 nM.

And the Ki (KAT5 Full length enzyme)?
The Ki was 326 nM.

Which Ki (KAT8 Full length enzyme) does the source give for `COc1cc2c(NS(=O)(=O)c3c(OC)cc(CN4CC[C@@H](F)C4)cc3OC)noc2cc1Nc1cc(C2CC2)n[nH]1` [Example 201, N-{6-[(3-cyclopropyl-1H-pyrazol-5-yl)amino]-5-methoxy-1,2-benzoxazol-3-yl}-4-{[(3R)-3-fluoropyrrolidin-1-yl]methyl}-2,6-dimethoxybenzene-1-sulfonamide] here?
Its Ki is 2190 nM.

What about the Ki [1] of the same compound?
The Ki was 3.4 nM.

And the Ki (KAT6A Full length enzyme)?
The Ki was 0.6 nM.

And the Ki [2]?
Its Ki is 4.1 nM.

And the Ki (KAT5 Full length enzyme)?
Its Ki is 192 nM.

How did the Ki (KAT8 Full length enzyme) turn out when `COc1cc2c(NS(=O)(=O)c3c(OC)cccc3OC(C)C)noc2cc1Nc1cc[nH]n1` [Example 32, 2-methoxy-N-{5-methoxy-6-[(1H-pyrazol-3-yl)amino]-1,2-benzoxazol-3-yl}-6-[(propan-2-yl)oxy]benzene-1-sulfonamide] was run?
The Ki was greater than 16300 nM.

And the Ki [1]?
Its Ki is 89.7 nM.

And the Ki [2]?
The Ki was 361 nM.

What about the Ki [3] of the same compound?
The Ki was 79.5 nM.

And the Ki (KAT5 Full length enzyme)?
Its Ki is 2740 nM.
